A short description of series [1]: refractive index (Na D-line) (dimensionless). As to conditions: 298.15 K; 101.33 kPa; Liquid; Standard Abbe refractometry.
For series [2] the following is noted: Liquid, Ebulliometric method (Recirculating still).

± gives the expanded uncertainty stated by the source.

By refractive index is commonly meant the speed of light in vacuum divided by its phase velocity in the sample. A word on the vapor or sublimation pressure: it is the equilibrium pressure above the liquid or solid.

Regarding `CCOC(C)=O` [ethyl acetate], the refractive index in series [1] was found to be 1.3712 ± 0.0005. Besides, the “vapor or sublimation pressure” value in series [2] (350.23 K) was 101.33 ± 1.6 kPa.
For `C[Si](C)(C)O[Si](C)(C)C` [hexamethyldisiloxane], the refractive index in series [1] is recorded as 1.3737 ± 0.0005. For the same compound, the “vapor or sublimation pressure” value in series [2] (372.73 K) is 101.33 ± 1.6 kPa.
